According to the CheMixHub viscosity set:
Values joined by “and” are separate entries in the source; they are usually repeats but may differ in a detail not shown here. Equal values may be shown once.

Experiment: xn = mol fraction of the nth substance listed

O=C1O[C@H]([C@@H](O)CO)C(O)=C1O + O
Conditions | viscosity
293.15 K, 101 kPa, x1 = 0.00359 | 1.078 mPa·s and 1.081 mPa·s and 1.077 mPa·s
293.15 K, 101 kPa, x1 = 0.005375 | 1.124 mPa·s and 1.122 mPa·s and 1.122 mPa·s
293.15 K, 101 kPa, x1 = 0.007156 | 1.162 mPa·s
293.15 K, 101.3 kPa, x1 = 0.0001803 | 1.013 mPa·s
293.15 K, 101.3 kPa, x1 = 0.00036 | 1.021 mPa·s
293.15 K, 101.3 kPa, x1 = 0.0005398 | 1.029 mPa·s
298.15 K, 101 kPa, x1 = 0.000364 | 0.899 mPa·s and 0.8985 mPa·s
298.15 K, 101 kPa, x1 = 0.000657 | 0.904 mPa·s and 0.9039 mPa·s
298.15 K, 101 kPa, x1 = 0.001 | 0.823 mPa·s
298.15 K, 101 kPa, x1 = 0.00125 | 0.916 mPa·s and 0.9161 mPa·s
298.15 K, 101 kPa, x1 = 0.00155 | 0.922 mPa·s and 0.9216 mPa·s
298.15 K, 101 kPa, x1 = 0.001665 | 0.9245 mPa·s
298.15 K, 101 kPa, x1 = 0.001856 | 0.927 mPa·s and 0.9273 mPa·s
298.15 K, 101 kPa, x1 = 0.002776 | 0.9451 mPa·s
298.15 K, 101 kPa, x1 = 0.003 | 0.835 mPa·s
298.15 K, 101 kPa, x1 = 0.005 | 0.847 mPa·s
298.15 K, 101 kPa, x1 = 0.005396 | 0.9979 mPa·s
298.15 K, 101 kPa, x1 = 0.009999 | 1.1 mPa·s
298.15 K, 101.3 kPa, x1 = 0.0001803 | 0.905 mPa·s
298.15 K, 101.3 kPa, x1 = 0.00036 | 0.913 mPa·s
298.15 K, 101.3 kPa, x1 = 0.0005398 | 0.918 mPa·s
303.15 K, 101 kPa, x1 = 0.001798 | 0.8267 mPa·s and 0.825 mPa·s
303.15 K, 101 kPa, x1 = 0.0018 | 0.8248 mPa·s
303.15 K, 101 kPa, x1 = 0.00359 | 0.8564 mPa·s and 0.8524 mPa·s
303.15 K, 101 kPa, x1 = 0.005375 | 0.8897 mPa·s and 0.8876 mPa·s and 0.8876 mPa·s
303.15 K, 101 kPa, x1 = 0.007154 | 0.9213 mPa·s and 0.9197 mPa·s
303.15 K, 101 kPa, x1 = 0.007156 | 0.916 mPa·s
303.15 K, 101.3 kPa, x1 = 0.0001803 | 0.812 mPa·s
303.15 K, 101.3 kPa, x1 = 0.00036 | 0.817 mPa·s
303.15 K, 101.3 kPa, x1 = 0.0005398 | 0.821 mPa·s
308.15 K, 101 kPa, x1 = 0.000364 | 0.724 mPa·s and 0.7239 mPa·s
308.15 K, 101 kPa, x1 = 0.000657 | 0.728 mPa·s and 0.7282 mPa·s
308.15 K, 101 kPa, x1 = 0.0007676 | 0.7308 mPa·s
308.15 K, 101 kPa, x1 = 0.00125 | 0.738 mPa·s and 0.7377 mPa·s
308.15 K, 101 kPa, x1 = 0.00155 | 0.743 mPa·s and 0.7431 mPa·s
308.15 K, 101 kPa, x1 = 0.001665 | 0.7425 mPa·s
308.15 K, 101 kPa, x1 = 0.001856 | 0.748 mPa·s and 0.7477 mPa·s
308.15 K, 101 kPa, x1 = 0.002776 | 0.7609 mPa·s
308.15 K, 101 kPa, x1 = 0.005396 | 0.8018 mPa·s
308.15 K, 101 kPa, x1 = 0.006205 | 0.8139 mPa·s
308.15 K, 101 kPa, x1 = 0.009999 | 0.8791 mPa·s
308.15 K, 101.3 kPa, x1 = 0.0001803 | 0.733 mPa·s
308.15 K, 101.3 kPa, x1 = 0.00036 | 0.738 mPa·s
308.15 K, 101.3 kPa, x1 = 0.0005398 | 0.743 mPa·s
313.15 K, 101 kPa, x1 = 0.001798 | 0.6755 mPa·s and 0.6783 mPa·s
313.15 K, 101 kPa, x1 = 0.0018 | 0.6734 mPa·s
313.15 K, 101 kPa, x1 = 0.00359 | 0.6979 mPa·s
313.15 K, 101 kPa, x1 = 0.005375 | 0.7227 mPa·s and 0.7222 mPa·s
313.15 K, 101 kPa, x1 = 0.007154 | 0.7485 mPa·s and 0.7473 mPa·s
313.15 K, 101 kPa, x1 = 0.007156 | 0.7432 mPa·s
313.15 K, 101.3 kPa, x1 = 0.0001803 | 0.668 mPa·s
313.15 K, 101.3 kPa, x1 = 0.00036 | 0.671 mPa·s
313.15 K, 101.3 kPa, x1 = 0.0005398 | 0.676 mPa·s
318.15 K, 101 kPa, x1 = 0.000364 | 0.6 mPa·s and 0.5998 mPa·s
318.15 K, 101 kPa, x1 = 0.000657 | 0.604 mPa·s and 0.6039 mPa·s
318.15 K, 101 kPa, x1 = 0.0007676 | 0.6078 mPa·s
318.15 K, 101 kPa, x1 = 0.000952 | 0.608 mPa·s and 0.6081 mPa·s
318.15 K, 101 kPa, x1 = 0.00125 | 0.612 mPa·s and 0.6122 mPa·s
318.15 K, 101 kPa, x1 = 0.00155 | 0.616 mPa·s
318.15 K, 101 kPa, x1 = 0.001665 | 0.6147 mPa·s
318.15 K, 101 kPa, x1 = 0.001856 | 0.621 mPa·s
318.15 K, 101 kPa, x1 = 0.002776 | 0.6296 mPa·s
318.15 K, 101 kPa, x1 = 0.006205 | 0.6736 mPa·s
318.15 K, 101 kPa, x1 = 0.009999 | 0.725 mPa·s
323.15 K, 101 kPa, x1 = 0.001798 | 0.5655 mPa·s and 0.5637 mPa·s
323.15 K, 101 kPa, x1 = 0.0018 | 0.5616 mPa·s
323.15 K, 101 kPa, x1 = 0.00359 | 0.5832 mPa·s and 0.5805 mPa·s
323.15 K, 101 kPa, x1 = 0.005375 | 0.6022 mPa·s and 0.6013 mPa·s
323.15 K, 101 kPa, x1 = 0.007154 | 0.6221 mPa·s and 0.6216 mPa·s
323.15 K, 101 kPa, x1 = 0.007156 | 0.6179 mPa·s
